We go through two compounds from US11052162B2, “Liposomal gadolinium (GD) contrast agent “NMRX” for T1-MRI” (TEXAS CHILDREN'S HOSPITAL, priority 2016, dated 2021).

For data set [1], the system named is pregnant Sprague Dawley rats. The data set is described as follows: DCE-MRI visualization of the retroplacental space. Format: in vivo, rat. As to conditions: 0.15 mmol Gd/kg, 20 minute post-contrast acquisition. The protocol: In the study with the conventional Gd contrast agent, dynamic contrast enhanced MRI (DCE-MRI) was performed using gadoterate meglumine (Gd-DOTA, Dotarem®) to evaluate visualization of the retroplacental space. DCE-MRI was performed using a T1w 2D gradient echo sequence (GRE) sequence with the following scan parameters: TE=3.5 ms, TR=15 ms, FA=25, slice thickness=0.8 or 1.6 mm, NEX=12; temporal resolution=47 s. Four non-contrast, baseline images were acquired followed by bolus intravenous administration of gadoterate meglumine (0.15 mmol Gd/kg). Post-contrast imaging was continued for upto 20 minutes after administration of gadoterate meglumine. In order to directly compare image quality between the two contrast agents, liposomal-Gd contrast agent (0.15 mmol Gd/kg) was administered a minimum of three hours later, allowing clearance of gadoterate meglumine. Post-liposomal-Gd contrast images were acquired using the same DCE-MRI protocol.
Pre-contrast and post-contrast scans were reviewed by a trained maternal-fetal radiologist (˜10 years of experience). T1 weighted GRE images and T2 weighted FSE images were included in the review. […] The visibility of target features in T1w and T2w images were scored by the radiologist on a 3-point scale: 0=not visible, 1=partly visible and 2=clearly visible. […]

Data set [2] is described as follows: Relaxivity (r1) by variable flip angle technique at 9.4 T. Format: physicochemical. The method, then: (§1) While the liposomal contrast agent has slow clearance, Multihance® clears rapidly, and timing the image acquisition is critical. We therefore opted to use the DCE-MRI technique to collect a series of images, from which the optimal time point could be selected. DCE-MRI experiments were performed on a horizontal bore 9.4 T Bruker Avance III, 20 cm bore Biospec Spectrometer (Karlsruhe, Germany) with a micro-imaging probe capable of generating gradients of (1000 mT/m). Prior to the in vivo study, the relaxivity of both agents was measured using the variable flip angle technique described in Appendix A. Similarly, the baseline relaxation rates, T1(O), for placenta and fetus were measured using the same pulse sequence as described in Appendix A.

Another data set relates to pregnant Balb/c mice. The data set is described as follows: Blinded reader rating of placental visibility in DCE-MRI. Format: in vivo, mouse. The method, then: The trans-placental permeability of liposomal gadolinium (Gd) nanoparticle contrast agents was evaluated in a pregnant mouse model. Pregnant Balb/c mice at 16.5 (±1) days of gestation were imaged using a 3D Spoiled Gradient Echo method at 9.4 T using two contrast agents: a clinically approved Gd chelate, Multihance® (gadobenate dimeglumine), and a novel experimental liposomal Gd agent. A Dynamic Contrast Enhancement (DCE) protocol was used to capture the dynamics of contrast entry and distribution in the placenta, and clearance from circulation. A blinded clinical radiologist evaluated both sets of images. A reference region model was used to measure the placental flow and physiological parameters; volume transfer constant (Ktrans), efflux rate constant (Kep). The Gd content of excised placentae and fetuses was measured, using inductively coupled plasma mass spectrometry (ICP-MS). […] Image interpretation and diagnostic quality was equivalent between the two contrast agents.
(§2) 25 female Balb/c mice (7-9 weeks old; average weight 26 grams before pregnancy) were used in this study. Animals were mated with same strain males. The day when a vaginal copulation plug was detected was designated as day 0.5. Pregnant mice were imaged at day 16.5±1. Mice were sacrificed (under the institutional euthanasia protocol) immediately after MRI data collection (except for two mice that received the liposomal Gd agent, and were maintained alive for 72 hours, allowing additional time for possible transport of Gd to the fetus, and then sacrificed). Mice were dissected and the placentae and fetuses removed and transferred individually to 2 ml polycarbonate vials for storage at −81° C. These placentae and fetuses were analyzed using ICP-MS for the direct measurement of Gd concentration.
Animals were anesthetized with 4% Isofluorane/air and transferred supine to the animal-imaging cradle. A 28-gauge catheter was placed in the tail vein. Once transferred to the imaging instrument, isofluorane (2%) was administered continuously via a nose cone. A pressure sensitive pillow was placed on the abdomen and taped in place to monitor respiration. The animal chamber of the imaging probe was maintained at around 30-33° C. The magnet room was maintained at 25-27° C. Heart rate was maintained at steady 50-60 beats-per-minute by adjusting the airflow and isofluorane concentration. MR imaging was performed with Multihance® in 14 mice. Liposomal Gd was used in 9 mice. Two mice were injected with saline as a control for comparison. Contrast agents were diluted to 20 mM and a dose of 0.08 mmol/kg (typically around 100 μL) were prepared for this study. The contrast agent was injected manually by the same operator (3 years of experience with small animals) and at the same rate in each mouse.
as §1
For the DCE-MRI study, baseline images without contrast enhancement were acquired, followed by a series of images acquired over time during and after the arrival of the contrast agent in the tissue of interest. A 3D-spoiled gradient recalled echo (SPGRE) pulse sequence with a fixed flip angle of 16 degrees was used over 175 measurements. Other parameters are described in Appendix A. The time for a single measurement was 9.25 seconds. […]

A short description of data set [3]: Placental and fetal contrast agent concentration and uptake from DCE-MRI data. In kind it is in vivo, mouse. The text has this: The image data was used to calculate absolute Gd concentrations using the methods in Appendix A. Contrast agent concentrations estimated from the MRI data are shown in Table 2-2 using Eqs. A4 and A5.
For the DCE-MRI study, baseline images without contrast enhancement were acquired, followed by a series of images acquired over time during and after the arrival of the contrast agent in the tissue of interest. A 3D-spoiled gradient recalled echo (SPGRE) pulse sequence with a fixed flip angle of 16 degrees was used over 175 measurements. Other parameters are described in Appendix A. The time for a single measurement was 9.25 seconds. Two minutes into the experiment, contrast was injected. Total scan time was 26 minutes and 52 seconds. The acquired signal was used to generate a time-intensity curve and the signal was converted pixel-by-pixel into concentration of the injected agent.
MRI data was transferred to an offline workstation and each placental and fetal compartment was segmented as a separate region of interest (ROI) using AMIRA V5.6 software (FEI Visualization Sciences Group, Hillsboro, Oreg.). The segmented regions were transferred to Matlab (Matlab 7.6.0, MathWorks, Natick, Mass., USA) to create a pixel-by-pixel T1(0) map and T1(t) map as described in Appendix A. Two placental zones were identified visually from the signal enhancement pattern: the labyrinth zone characterized by early flow enhancement and a peripheral region (maternal decidua) characterized by late flow enhancement that began after the central labyrinth enhancement peaked. The two zones together constitute the entire placenta.

Data set [4] is described as follows: Gadolinium assay by ICP-MS of placentae and fetuses. In kind it is in vivo, mouse. The protocol:
as §2
Wet tissue from placentae or pups was chopped with a scalpel into ˜3 mm pieces. A known mass of chopped tissue was then dissolved in 2-4 ml of concentrated nitric acid (14N) and heated at 100° C. till tissue completely dissolved. (Usually, about 30-45 minutes at room temperature and 3 minutes at 100° C. were sufficient). The acid solution was diluted with 10 ml of DI water, causing some precipitation of organic material. The material was centrifuged at 3000 g for 5-10 minutes, and the supernatant used for analysis. Serial dilutions over a 10^6 range were then made, and spiked with an internal standard of Bi 10 parts per billion (ppb) in 2% nitric acid. ICP-MS analysis was conducted on a Varian 810 ICP-MS system, using the manufacturer's recommended protocol for Gd assay. A spike-recovery study on blank tissue yielded linear response with >90% recovery over a range of 0-900 ppb and >96% response over a range of 0-50 ppb.

The mark [5] stands for this setting: placentae rated by blinded reader, 5-point scale, 9.4 T.

As for `CNC[C@H](O)[C@@H](O)[C@H](O)[C@H](O)CO.O=C([O-])CN1CCN(CC(=O)[O-])CCN(CC(=O)O)CCN(CC(=O)[O-])CC1.[Gd+3]` [gadoterate meglumine], the “visualization of the retroplacental space” value in data set [1] was “no consistent and reproducible visualization of the retroplacental space”.
On to `CNC[C@H](O)[C@@H](O)[C@H](O)[C@H](O)CO.CNC[C@H](O)[C@@H](O)[C@H](O)[C@H](O)CO.O=C([O-])CN(CCN(CC(=O)[O-])CC(=O)O)CCN(CC(=O)O)C(COCc1ccccc1)C(=O)[O-].[Gd+3]` (stereo not drawn) [Multihance, gadobenate dimeglumine], for which, in data set [2], the “relaxivity (r1)” value came out at 3.99 ± 0.52 s/mM. In the data set with pregnant Balb/c mice (DCE-MRI), the “time of image intensity peak after injection” value is 11 to 15 s. Further, in the data set with pregnant Balb/c mice (setting [5]), the “Number observed with Placenta Visibility 1” value is 1, the “Number observed with Placenta Visibility 2” value was 6, the “Number observed with Placenta Visibility 3” value was 25 and the “Number observed with Placenta Visibility 4” value worked out at 15. In the data set with pregnant Balb/c mice (setting [5]), the “Number observed with Placenta Visibility 5” value is on record as 7. Moreover, in data set [3] (MRI, liposomal Gd even after 72 hr exposure), the “uptake of contrast agent in the fetal compartment” value is “uptake of contrast agent in the fetal compartment was observed”. The Placental concentration in data set [3] (gadolinium peak from MRI data, mean, ROI around entire placenta, 0.08 mmol/kg) came to 0.60 ± 0.51 µmol/L. The Fetal concentration in data set [3] (gadolinium peak from MRI data, mean, ROI around fetal sac, 0.08 mmol/kg) is 0.027 ± 0.01 µmol/L. Besides, the “Gd concentration in placentae and fetuses versus detection limit” value in data set [4] (45 minutes and 90 minutes post injection, detection limit 0.318 nmol/g tissue) is “above the detection limit”. For the same compound, the “Placental and fetal Gd concentrations relative to each other” value in data set [4] (45 minutes post-injection) is recorded as “within an order of magnitude of each other”. Besides, the “Placental and fetal Gd concentrations, factor of each other” value in data set [4] (90 minutes post-injection) was at most 2. Besides, the transplacental permeation entry in data set [4] (MRI images and ICP-MS analyses of placental and fetal tissue) is reported as “avidly permeated the placental barrier”.
